Test results from US9119855B2, “Compositions and methods for treatment of the side-effects associated with administration of cancer chemotherapeutic agents” (Asymmetric Therapeutics, LLC, priority 2008, dated 2015).
“Also recorded” adds a separate entry of the source. Read-outs that look alike come from different tables or passages of the source.

Assays:
[1] = Van Acker et al.; cited from earlier work
[2] = Van Acker et al.; cited from earlier work; remark: listed apart in the source
in vitro = assay type: cell-based; conditions: human
Description: The efficacy of certain compounds as protective agents when co-administered with 5-FU was tested in cell culture. […] The relative viability of the cells was determined after 120 hours.

Caco-2 cells = tested on: Caco-2 cells
Description: 5-FU was dissolved in water and added to media at 10 μM, the clinically-relevant dose. Media was changed every day with reapplication of 5-FU. After 72 hr, the cell viability was assessed and is expressed relative to a vehicle control (Caco-2, n=3).

[3] = acidic / low pH, orotate not charged (Robinson et al.); cited from earlier work
primary human skin cells = tested on: primary human skin cells
Description: The concentration of 5-FU was also 0.01 mM in these trials. […] The relative viability of the cells was determined after 48 hours (FIG. 7) or 72 hours (FIG. 8).

[4] = tested on: primary human epithelial cells of the gingiva (HEGP); test: Protection of primary gingival epithelial cells from 5-FU toxicity, 72 hours (FIG. 9); assay type: cell-based
Excerpt: GI columnar cells rely for growth predominantly on de novo pyrimidine synthesis from nutrients in the GI contents. Squamous cells of the oropharynx rely for growth predominantly on salvage of cell constituents of the overlying cells closer to the tissue surface.

## Nc1nc(O)nc2nc(O)[nH]c12 [2,8-dihydroxy adenine]
[1]
  renal toxicity: can cause renal stones
[2]
  solubility: poorly soluble

## O=c1[nH]cc(F)c(=O)[nH]1 [5-FU, 5-fluorouracil, reference compound]
In vitro
  viability at 120 h, 0.01 mM: < 50%

## Nc1ncnc2nc[nH]c12 [adenine]
Caco-2 cells
  cytoprotection against 10 μM 5-FU toxicity: progressively greater cytoprotection
Caco-2 cells; adenine alone, vs 10 μM 5-FU
  excess of protective nucleobase required for quantitative protection: ~100 ×

## O=C(O)c1cc(=O)[nH]c(=O)[nH]1 [orotate]
[3]
  absorption into the systemic circulation: better absorbed; also recorded: absorbed at a higher rate
Caco-2 cells
  cytoprotection against 10 μM 5-FU toxicity: statistically insignificant cytoprotection
Caco-2 cells; orotate 1.25 mM with adenine 0.0125 mM through 1.25 mM, 10 μM 5-FU (FIG. 5)
  effect of adding orotate on cytoprotection by adenine: did not initially attenuate 5-FU toxicity beyond the cytoprotection provided by adenine alone
Caco-2 cells; still higher concentrations of orotate with adenine 2.5 mM (FIG. 6, Results 5, 6 vs 2)
  effect of adding orotate on cytoprotection by adenine: progressively greater abrogation of salvage
Primary human skin cells
  impact on skin (squamous) cell response to 5-FU exposure: does not impact

## O=c1cc[nH]c(=O)[nH]1 [uracil]
[4]; FIG. 9, 72 hours
  efficacy and toxicity to primary gingival cells (HGEP): effective and non-toxic
[4]; excess of uracil together with 5-FU 10 μM
  prevention of 5-FU toxicity: prevented 5-FU toxicity
[4]; further addition of uracil at 1.25 mM to adenine and orotate 2.5 mM each (Result Y)
  protection against 5-FU toxicity: significant protection
[4]; further addition of uracil at 2.5 mM to adenine and orotate 2.5 mM each (Result Z)
  protection against 5-FU toxicity: even more significant protection
Caco-2 cells; further addition of uracil 1.25 and 2.5 mM, 10 μM 5-FU, data not shown
  effect on cytoprotection by adenine 2.5 mM in combination with orotate 2.5 mM: reversal of the cytoprotection
